# Patent US7601333B2, “Use of a tetrapeptide AcSDKP (SEQ ID No. 1) analog resistant to the angiotensin I converting enzyme for measuring glomerular filtration rate in a human or an animal and kit containing same” (Assistance Publique-Hopitaux de Paris, priority 2003, dated 2009)
# Where “and” joins values, the source holds several entries; their conditions need not be identical. Equal values may be shown once. Read-outs that look alike come from different tables or passages of the source. Residues, ends and D or L forms follow the SMILES beside them.
# Assays:
# ACE (rat lung) = system: T1, ACE (rat lung); assay: In vitro degradation in the presence of rat lung ACE; type: in vitro ADME; details: ground rat lung material (rat lung ACE), peptide 100 nM, ground rat lung material 0.1 mg/ml, pH 7.5, read-out: percentage of peptide assayed relative to the control; for remaining at 1 h, 100 nM: T60 min; for remaining at 2 h, 100 nM: T120 min; for remaining at 4 h, 100 nM: T240 min
# T1 construct: incubated with ground rat lung material (at 0.1 mg/ml); from tissue; host or cells: rat lung (ground material)
# Description: (§1) The peptides (100 nM) were incubated with ground rat lung material (at 0.1 mg/ml) or human converting enzyme (5 mU final concentration) in the presence or absence of captopril (10 μM final concentration) in 0.1 M Tris/HCl buffer+0.3 mM NaCl, pH=7.5. A control comprising only the peptides in the presence of 0.1 M Tris/HCl buffer+0.3 mM NaCl, pH=7.5, was carried out.
# (§2) A methanol extraction was carried out in order to stop the reaction. At each time, the concentration of the nondegraded peptide was measured by enzyme immunoassay.
# (§3) The results were expressed as percentage of peptide assayed relative to the control for each sample time.
# [1] = Plasma and urine pharmacokinetics after I.V. bolus in rats; details: for % excreted - endog / CLR -endog: endogenous AcSDKP subtracted; for % excreted: urine
# in vivo = details: male, Wistar, rat, iv
# human ACE [2] = assay: In vitro degradation in the presence of human ACE; type: in vitro ADME; details: human converting enzyme (human ACE), peptide 100 nM, human converting enzyme 5 mU, pH 7.5, read-out: percentage of peptide assayed relative to the control; for remaining at 10 min, 100 nM: T10 min; for remaining at 0.5 h, 100 nM: T30 min; for remaining at 1 h, 100 nM: T60 min; for remaining at 2 h, 100 nM: T120 min; for remaining at 4 h, 100 nM: T240 min
# Description: as §1, §2, §3
# human ACE [3] = biological target: human ACE (Homo sapiens, UniProt P12821); assay: In vitro degradation in the presence of human ACE; type: in vitro ADME; details: in vitro
# Description: as §1, §2, §3
# [4] = with captopril 10 μM, + captopril 10 μM
# [5] = Group 1, i.v. bolus, without captopril, mean
# [6] = Group 1, i.v. bolus, without captopril, single rats
# [7] = Group 2, i.v. bolus, with captopril, 2-4 h, single rats
# [8] = Group 2, i.v. bolus, with captopril, mean
# [9] = Group 2, i.v. bolus, with captopril, single rats
# [10] = summarizing table, rats, i.v. bolus, with captopril
# [11] = summarizing table, rats, i.v. bolus, without captopril
# Sequence of human ACE (Homo sapiens, UniProt P12821) (P12821 30-1306): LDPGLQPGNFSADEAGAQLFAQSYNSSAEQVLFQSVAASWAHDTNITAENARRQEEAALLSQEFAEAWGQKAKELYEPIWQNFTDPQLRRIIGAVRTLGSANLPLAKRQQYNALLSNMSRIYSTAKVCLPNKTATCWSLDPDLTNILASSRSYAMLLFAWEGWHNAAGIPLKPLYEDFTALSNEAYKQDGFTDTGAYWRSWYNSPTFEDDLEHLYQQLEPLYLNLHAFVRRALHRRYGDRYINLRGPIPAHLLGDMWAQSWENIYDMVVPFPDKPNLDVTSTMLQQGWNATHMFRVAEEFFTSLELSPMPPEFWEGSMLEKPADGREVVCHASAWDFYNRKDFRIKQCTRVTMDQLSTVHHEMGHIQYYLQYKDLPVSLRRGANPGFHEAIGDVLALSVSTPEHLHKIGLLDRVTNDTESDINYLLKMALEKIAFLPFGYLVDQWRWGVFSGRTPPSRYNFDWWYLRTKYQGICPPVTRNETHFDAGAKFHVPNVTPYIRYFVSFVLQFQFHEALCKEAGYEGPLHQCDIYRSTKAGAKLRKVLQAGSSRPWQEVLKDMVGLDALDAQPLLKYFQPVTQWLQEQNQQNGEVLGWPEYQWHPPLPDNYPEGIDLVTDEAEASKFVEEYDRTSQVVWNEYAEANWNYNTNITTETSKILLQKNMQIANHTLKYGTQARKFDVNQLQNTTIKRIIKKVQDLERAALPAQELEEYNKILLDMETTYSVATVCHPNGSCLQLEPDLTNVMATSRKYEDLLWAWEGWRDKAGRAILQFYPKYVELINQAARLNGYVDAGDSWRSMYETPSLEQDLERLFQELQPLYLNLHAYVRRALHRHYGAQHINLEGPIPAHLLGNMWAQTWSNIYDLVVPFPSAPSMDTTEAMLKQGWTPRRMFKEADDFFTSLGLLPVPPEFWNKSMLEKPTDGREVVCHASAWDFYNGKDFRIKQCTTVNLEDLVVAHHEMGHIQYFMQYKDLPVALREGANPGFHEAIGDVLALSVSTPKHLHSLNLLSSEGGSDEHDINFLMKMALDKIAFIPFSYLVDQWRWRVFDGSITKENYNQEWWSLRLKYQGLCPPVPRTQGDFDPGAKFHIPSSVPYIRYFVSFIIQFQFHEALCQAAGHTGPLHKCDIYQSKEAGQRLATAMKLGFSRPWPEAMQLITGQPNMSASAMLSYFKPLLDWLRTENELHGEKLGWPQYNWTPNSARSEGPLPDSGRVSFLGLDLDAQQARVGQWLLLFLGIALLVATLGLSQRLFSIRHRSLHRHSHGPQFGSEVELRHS
structure (smiles),measurement,setting,value
"CC(=O)N[C@@H](CO)C(=O)N[C@@H](CC(=O)O)C(=O)N[C@@H](CCCCN)C(=O)N1CCC[C@H]1C(=O)O [AcSDKP, N-acetyl-Ser-Asp-Lys-Pro] (Ac-SDKP-OH; C-terminus assumed)","remaining at 1 h, 100 nM",ACE (rat lung); [4],111%
same,"remaining at 2 h, 100 nM",ACE (rat lung); [4],75%
same,"remaining at 4 h, 100 nM",ACE (rat lung); [4],89%
same,"remaining at 0.5 h, 100 nM","ACE (rat lung); T30 min, without captopril",28%
same,"remaining at 1 h, 100 nM",ACE (rat lung); without captopril,9%
same,"remaining at 2 h, 100 nM",ACE (rat lung); without captopril,5%
same,"remaining at 4 h, 100 nM",ACE (rat lung); without captopril,5%
same,Q in urine,"[1]; Group 1, i.v. bolus, without captopril, 0-2 h, single rats",25.1 nmol and 0.0 nmol and 46.7 nmol and 0.1 nmol
same,Q in urine,"[1]; Group 1, i.v. bolus, without captopril, 2-4 h, single rats",7.1 nmol and 0.0 nmol and 15.7 nmol and 36.4 nmol
same,Q in urine,"[1]; Group 1, i.v. bolus, without captopril, 4-5 h, single rats",33.5 nmol and 51.3 nmol and 0.0 nmol and 14.6 nmol
same,Q in urine,"[1]; Group 1, i.v. bolus, without captopril, 5-24 h, single rats",9.9 nmol and 10.2 nmol and 0.0 nmol and 20.6 nmol and 78.5 nmol
same,Q in urine,"[1]; Group 1, i.v. bolus, without captopril, 24-36 h, single rats",4.1 nmol and 3.4 nmol and 15.5 nmol and 0.9 nmol
same,Q in urine,"[1]; Group 1, i.v. bolus, without captopril, 36-48 h, single rats",4.0 nmol and 1.7 nmol and 3.4 nmol and 2.0 nmol and 7.9 nmol
same,Concentration in plasma,"[1]; Group 1, i.v. bolus, without captopril, 5 min, single rats",2188 nM and 1759 nM and 1239 nM and 2100 nM and 1802 nM
same,Concentration in plasma,"[1]; Group 1, i.v. bolus, without captopril, 10 min, single rats",729 nM and 400 nM and 265 nM and 671 nM and 508 nM
same,Concentration in plasma,"[1]; Group 1, i.v. bolus, without captopril, 15 min, single rats",268 nM and 96 nM and 135 nM and 328 nM and 143 nM
same,Concentration in plasma,"[1]; Group 1, i.v. bolus, without captopril, 30 min, single rats",34 nM and 14 nM and 10 nM (2×) and 121 nM
same,Concentration in plasma,"[1]; Group 1, i.v. bolus, without captopril, 60 min, single rats",5 nM and 0.36 nM and 0.15 nM and 33 nM and 2 nM
same,Concentration in plasma,"[1]; Group 1, i.v. bolus, without captopril, 120 min, single rats",ILQ (4×) and 2 nM
same,Concentration in plasma,"[1]; Group 1, i.v. bolus, without captopril, 180 min, single rats",ILQ
same,Concentration in plasma,"[1]; Group 1, i.v. bolus, without captopril, 240 min, single rats",ILQ
same,Concentration in plasma,"[1]; Group 1, i.v. bolus, without captopril, 300 min, single rats",ILQ
same,% excreted - endog,[1]; [5],7.86%
same,CLR -endog,[1]; [5],11.21 mL/min/kg
same,% excreted - endog,[1]; [6],8.9% and 8.0% and 5.6% and 8.3% and 8.5%
same,CLR -endog,[1]; [6],8.6 mL/min/kg and 11.1 mL/min/kg and 11.5 mL/min/kg and 11.8 mL/min/kg and 13.0 mL/min/kg
same,AUC0-inf,[1]; [5],17393 nM·min
same,CLR,[1]; [5],14.52 mL/min/kg
same,VD,[1]; [5],1.389 L/kg
same,t½,[1]; [5],6.8 min
same,AUC0-inf,[1]; [6],230401 nM·min and 16319 nM·min and 13026 nM·min and 18178 nM·min and 16223 nM·min
same,CLR,[1]; [6],10.7 mL/min/kg and 12.5 mL/min/kg and 20.3 mL/min/kg and 12.8 mL/min/kg and 16.4 mL/min/kg
same,Q in urine total,[1]; [6],83.7 nmol and 66.6 nmol and 81.3 nmol and 74.5 nmol and 86.5 nmol
same,VD,[1]; [6],0.894 L/kg and 1.07 L/kg and 1.034 L/kg and 2.6 L/kg and 1.346 L/kg
same,t½,[1]; [6],6.4 min and 4.7 min and 4.4 min and 12.8 min and 5.9 min
same,% excreted,[1]; [6],1.1% and 9.4% and 10.5% and 8.9% and 10.4%
same,Q in urine,"[1]; Group 2, i.v. bolus, with captopril, 0-2 h, single rats",0.0 nmol
same,Concentration in urine,[1]; [7],126118 nM
same,Q in urine,[1]; [7],0.2 nmol and 744.4 nmol and 820.9 nmol and 0.0 nmol and 535.3 nmol
same,Q in urine,"[1]; Group 2, i.v. bolus, with captopril, 4-6 h, single rats",0.0 nmol
same,Q in urine,"[1]; Group 2, i.v. bolus, with captopril, 6-24 h, single rats",504.6 nmol and 49.0 nmol and 219.7 nmol and 649.1 nmol and 202.3 nmol
same,Q in urine,"[1]; Group 2, i.v. bolus, with captopril, 24-30 h, single rats",1.6 nmol and 9.6 nmol and 0.0 nmol (3×)
same,Q in urine,"[1]; Group 2, i.v. bolus, with captopril, 30-48 h, single rats",8.0 nmol and 2.5 nmol and 10.6 nmol (2×) and 0.4 nmol
same,Concentration in plasma,"[1]; Group 2, i.v. bolus, with captopril, 5 min, single rats",6707 nM and 5413 nM and 5511 nM and 5293 nM and 5393 nM
same,Concentration in plasma,"[1]; Group 2, i.v. bolus, with captopril, 10 min, single rats",5920 nM and 4813 nM and 4288 nM and 5439 nM and 4445 nM
same,Concentration in plasma,"[1]; Group 2, i.v. bolus, with captopril, 15 min, single rats",5571 nM and 4016 nM and 3399 nM and 3876 nM and 3343 nM
same,Concentration in plasma,"[1]; Group 2, i.v. bolus, with captopril, 30 min, mean",2457 nM
same,Concentration in plasma,"[1]; Group 2, i.v. bolus, with captopril, 30 min, single rats",2173 nM
same,Concentration in plasma,"[1]; Group 2, i.v. bolus, with captopril, 60 min, single rats",1759 nM and 735 nM and 848 nM and 1069 nM and 590 nM
same,Concentration in plasma,"[1]; Group 2, i.v. bolus, with captopril, 120 min, single rats",501 nM and 151 nM and 145 nM and 197 nM and 97 nM
same,Concentration in plasma,"[1]; Group 2, i.v. bolus, with captopril, 180 min, single rats",159 nM and 32 nM and 39 nM and 48 nM and 21 nM
same,Concentration in plasma,"[1]; Group 2, i.v. bolus, with captopril, 240 min, single rats",52 nM and 10 nM and 18 nM and 23 nM and 7 nM
same,Concentration in plasma,"[1]; Group 2, i.v. bolus, with captopril, 300 min, single rats",26 nM and 9 nM and 6 nM and 11 nM and 4 nM
same,% excreted - endog,[1]; [8],97%
same,CLR -endog,[1]; [8],11.67 mL/min/kg
same,% excreted - endog,[1]; [9],75.3% and 85.1% and 139.3% and 90.2% and 95.1%
same,CLR -endog,[1]; [9],5.2 mL/min/kg and 13.2 mL/min/kg and 16.4 mL/min/kg and 10.1 mL/min/kg and 13.5 mL/min/kg
same,AUC0-INF,[1]; [8],224742 nM·min
same,CLR,[1]; [8],11.94 mL/min/kg
same,Vd,[1]; [8],0.515 L/kg
same,t½,[1]; [8],30.7 min
same,AUC0-INF,[1]; [9],341133 nM·min and 196456 nM·min and 200683 nM·min and 217932 nM·min and 167504 nM·min
same,CLR,[1]; [9],5.39 mL/min/kg and 13.59 mL/min/kg and 16.71 mL/min/kg and 10.09 mL/min/kg and 13.91 mL/min/kg
same,Q in urine total,[1]; [9],514.5 nmol and 805.5 nmol and 1051.2 nmol and 649.5 nmol and 748.3 nmol
same,Vd,[1]; [9],0.653 L/kg and 0.499 L/kg and 0.505 L/kg and 0.567 L/kg
same,t½,[1]; [9],35.5 min and 29.2 min and 29.5 min and 31.4 min and 28.1 min
same,% excreted,[1]; [9],78.2% and 87.7% and 142.2% and 90.4% and 97.9%
same,degradation in vivo,"[1]; rats, in the absence of captopril",rapidly degraded in vivo
same,Renal clearance,[1]; [10],11.7 mL/min/kg
same,T ½ life,[1]; [10],30.7 min
same,Total clearance,[1]; [10],11.9 mL/min/kg
same,T ½ life,[1]; [11],6.8 min
same,Total clearance,[1]; [11],144.4 mL/min/kg
same,Vd,in vivo; plasma,0.353 L/kg
same,level at time molar at 5 min,in vivo; plasma,5660 nM
same,level at time molar at 10 min,in vivo; plasma,4980 nM
same,level at time molar at 0.25 h,in vivo; plasma,4040 nM
same,level at time molar at 1 h,in vivo; plasma,1000 nM
same,level at time molar at 2 h,in vivo; plasma,218 nM
same,level at time molar at 3 h,in vivo; plasma,60 nM
same,level at time molar at 4 h,in vivo; plasma,22 nM
same,level at time molar at 5 h,in vivo; plasma,11 nM
same,level at time molar at 5 min,"in vivo; plasma, 1.2 mg/kg",1820 nM
same,level at time molar at 10 min,"in vivo; plasma, 1.2 mg/kg",514 nM
same,level at time molar at 0.25 h,"in vivo; plasma, 1.2 mg/kg",194 nM
same,level at time molar at 0.5 h,"in vivo; plasma, 1.2 mg/kg",38 nM
same,level at time molar at 1 h,"in vivo; plasma, 1.2 mg/kg",8.2 nM
same,level at time molar at 2 h,"in vivo; plasma, 1.2 mg/kg",2.2 nM
same,CL renal,"in vivo; urine and plasma, 1 mg/kg",11.2 mL/min/kg
same,dose excreted,"in vivo; urine, 1.2 mg/kg",10.1%
same,"remaining at 10 min, 100 nM",human ACE [2]; [4],90%
same,"remaining at 0.5 h, 100 nM",human ACE [2]; [4],100%
same,"remaining at 1 h, 100 nM",human ACE [2]; [4],85%
same,"remaining at 2 h, 100 nM",human ACE [2]; [4],85%
same,"remaining at 4 h, 100 nM",human ACE [2]; [4],100%
same,"remaining at 10 min, 100 nM",human ACE [2]; without captopril,82%
same,"remaining at 0.5 h, 100 nM",human ACE [2]; without captopril,75%
same,"remaining at 1 h, 100 nM",human ACE [2]; without captopril,50%
same,"remaining at 2 h, 100 nM",human ACE [2]; without captopril,25%
same,"remaining at 4 h, 100 nM",human ACE [2]; without captopril,7%
same,degradation by ACE of human origin,human ACE [3],degraded
